Measurements: BindingDB's records for patent US20240033370 (Bolt Biotherapeutics, 2024)

Target: T1, Toll-like receptor 7 (Homo sapiens, UniProt Q9NYK1)
T1 sequence (Q9NYK1 whole entry): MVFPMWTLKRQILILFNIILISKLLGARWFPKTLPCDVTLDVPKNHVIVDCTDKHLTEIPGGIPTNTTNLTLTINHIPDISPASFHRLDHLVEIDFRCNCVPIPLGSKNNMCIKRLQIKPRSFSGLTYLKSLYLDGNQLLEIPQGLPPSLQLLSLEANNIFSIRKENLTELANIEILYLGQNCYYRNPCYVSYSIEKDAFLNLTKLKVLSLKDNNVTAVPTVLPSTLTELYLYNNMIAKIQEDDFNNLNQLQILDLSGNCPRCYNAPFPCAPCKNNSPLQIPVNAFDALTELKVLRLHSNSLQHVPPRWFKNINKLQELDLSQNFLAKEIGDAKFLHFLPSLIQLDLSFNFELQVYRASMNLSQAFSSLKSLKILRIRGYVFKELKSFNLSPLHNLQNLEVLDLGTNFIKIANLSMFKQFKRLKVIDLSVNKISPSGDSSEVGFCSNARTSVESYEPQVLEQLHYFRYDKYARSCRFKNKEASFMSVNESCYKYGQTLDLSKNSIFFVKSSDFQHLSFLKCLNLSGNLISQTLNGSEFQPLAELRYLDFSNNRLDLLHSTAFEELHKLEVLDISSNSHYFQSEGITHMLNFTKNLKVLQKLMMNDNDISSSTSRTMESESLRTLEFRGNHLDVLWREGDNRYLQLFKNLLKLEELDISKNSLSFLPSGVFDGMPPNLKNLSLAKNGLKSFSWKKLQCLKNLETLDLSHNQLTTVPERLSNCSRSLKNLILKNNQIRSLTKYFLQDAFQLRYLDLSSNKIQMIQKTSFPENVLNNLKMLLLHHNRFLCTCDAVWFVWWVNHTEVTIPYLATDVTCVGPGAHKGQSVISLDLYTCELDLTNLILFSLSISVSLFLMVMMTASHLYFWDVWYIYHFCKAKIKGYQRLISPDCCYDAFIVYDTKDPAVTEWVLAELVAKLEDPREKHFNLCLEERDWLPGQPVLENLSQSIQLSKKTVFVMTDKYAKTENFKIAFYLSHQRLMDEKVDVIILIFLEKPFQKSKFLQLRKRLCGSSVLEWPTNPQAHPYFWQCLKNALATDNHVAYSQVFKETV
Assay: HEK Reporter Assay
Experimental: HEK293 reporter cells expressing human TLR7 or human TLR8 were purchased from Invivogen and vendor protocols were followed for cellular propagation and experimentation. Briefly, cells were grown to 80-85% confluence at 5% CO2 in DMEM supplemented with 10% FBS, Zeocin, and Blasticidin. Cells were then seeded in 96-well flat plates at 4×10^4 cells/well with substrate containing HEK detection medium and immunostimulatory molecules. Activity was measured using a plate reader at 620-655 nm wavelength.

EC50: 0.035 µM
SMILES: CCCNC(=O)C1=Cc2ccc(-c3cnc(CN)nc3)cc2N=C(N)C1 [US20240033370, Hx No. CycBz-5]
